In PubChem BioAssay (NCI):
Values joined by “and” are separate entries in the source; they are usually repeats but may differ in a detail not shown here. Identical values can stand only once.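 Interpolation was linear, between the two tested concentrations surrounding the appropriate level; five concentrations were tested over 48 hours in 96-well plates. GI50 is the concentration that inhibits growth by half. TGI marks complete inhibition of growth.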

Columns and labels:
Assay in all cases: growth of human tumour cells (NCI), 48 h
A498 renal = system: A498 renal
RPMI-8226 leukemia = system: RPMI-8226 leukemia
UACC-62 melanoma = system: UACC-62 melanoma
CCRF-CEM leukemia = system: CCRF-CEM leukemia
U251 CNS = system: U251 CNS
M14 melanoma = system: M14 melanoma
NCI-H522 lung = system: NCI-H522 lung
SK-MEL-5 melanoma = system: SK-MEL-5 melanoma
HCT-116 colon = system: HCT-116 colon
SR leukemia = system: SR leukemia

Structure (SMILES)	GI50 (A498 renal) [nM]	TGI (A498 renal) [µM]	TGI (RPMI-8226 leukemia) [µM]	GI50 (UACC-62 melanoma) [µM]	TGI (UACC-62 melanoma) [µM]	TGI (CCRF-CEM leukemia) [µM]	TGI (U251 CNS)	TGI (M14 melanoma) [µM]	TGI (NCI-H522 lung) [µM]	TGI (SK-MEL-5 melanoma) [µM]	TGI (HCT-116 colon) [µM]	GI50 (RPMI-8226 leukemia) [nM]	GI50 (CCRF-CEM leukemia) [nM]	GI50 (U251 CNS) [µM]	GI50 (M14 melanoma) [nM]	GI50 (NCI-H522 lung) [µM]	GI50 (SK-MEL-5 melanoma) [µM]	GI50 (HCT-116 colon) [µM]	GI50 (SR leukemia) [µM]	TGI (SR leukemia) [µM]
CC(=O)[CH-]C(=O)c1ccccc1.CC(=O)[CH-]C(=O)c1ccccc1.CC[C@H](CCC(C)[C@H]1CCC2[C@@H]3CC=C4C[C@@H]([O-])CC[C@]4(C)C3CC[C@@]21C)C(C)C.CC[C@H](CCC(C)[C@H]1CCC2[C@@H]3CC=C4C[C@@H]([O-])CC[C@]4(C)C3CC[C@@]21C)C(C)C.Cl.[Ti+4] (some centres not stated)	> 25000	> 25	> 25	> 25	> 25	> 25	> 25 µM	> 25	> 25	> 25	> 25									
Cc1cc2c3c(nc4ccccc42)C(=O)c2cccnc2-c3n1	966	4.12	0.46	0.284	0.936	1.4	6.93 µM		0.315	0.354	0.11	99	171	0.413	479	0.04	0.0808	< 0.0416		
CC(=O)[CH-]C(=O)c1ccccc1.CC(=O)[CH-]C(=O)c1ccccc1.CC(=O)[CH-]C(=O)c1ccccc1.[Cl-].[Hf+4]	25500	75.5	> 100	29.7	> 100	> 100	> 100 µM	60.8	> 100	> 100		34200	9360	22	18600	26.5	32.5			
c1ccc(C2=Nc3ccccc3N3CNN=C23)cc1			> 100	> 100	> 100	> 100	> 100 µM	> 100	> 100	> 100	> 100	31600	> 100000	> 100	> 100000	> 100	63.6	> 100	25	> 100
COC12OCCN(C)C1=CC(=O)C1N=NCC12 (configuration not stated)		> 100	> 100		> 100	> 100	> 100 µM	> 100	> 100	> 100	> 100									
O=C(CC(=O)N1N=C(n2ccc3ccccc32)CC1c1ccccc1)Nc1ccccc1Cl (configuration not stated)		> 100	> 100		> 100	> 100	> 100 µM	> 100	> 100		> 100									
O=c1[nH]c(-c2ccccc2)nc2cc([N+](=O)[O-])c(/C(Cl)=C/c3ccccc3)cc12			88.7		42.6		> 100 µM		81.7	74	> 100									> 100
COc1cccc(N2C(=N)/C(=C3\Nc4ccccc4S3)CC2=O)c1	2020	80	> 100	> 100	> 100	> 100	> 100 µM	> 100	> 100	> 100	> 100	2730	1910	3.89	> 100000	8.22	7.78	6.22		
C/C(=C\CNc1ncnc2c1ncn2C1CCCCO1)COP(=O)(O)O (configuration not stated)			> 100		> 100	> 100	> 100 µM	> 100	> 100	> 100	> 100									> 100
CN(C)C/C=C/C(=O)Nc1ccc(C(=O)Nc2cccc(Nc3ncc(Cl)c(-c4c[nH]c5ccccc45)n3)c2)cc1	18.9	0.119		0.043	0.259	> 100	> 38.2 µM	0.173	0.094	> 100			< 10	0.0238	34.6	0.0172	0.035	< 0.0131	0.017	> 100
CC(=O)CCC[C@@H](C)[C@@H]1O[C@H]([C@@]2(C)CCC(=O)O2)CC2[C@H]1OC(=O)C21CC1 (some centres not stated)			> 100	> 100	> 100	> 100	> 100 µM		> 100	92.4	> 100	> 100000	> 100000	91.3		> 100	21.7	> 100	29.4	> 100
COC(=O)C1=C(C)N(NC(N)=O)C2(N)N(NC(N)=O)C(C)=C(C(=O)OC)C12C#N (configuration not stated)		> 100	> 100		> 100	> 100	> 100 µM	> 100	> 100		> 100									
COc1ccc(/C=C/C(=O)C(=O)/C=C/c2ccc(OC)c(OC)c2)cc1OC	2260	19.9	2.33	1.92	4.87	20	3.6 µM	4.4	19.3	6.15	1.33	389	2220	1.53	1690	3.75	2.14	0.319		
CC(=O)NNc1nc(C)c(C(=O)/C=C/c2ccc(N(C)C)cc2)s1		> 100	> 100		> 100	> 100	> 100 µM		> 100	> 100										
COc1ccc(N=Nc2c(-c3ccccc3)nn(C(=O)CC(=O)Nc3ccc(OC)cc3)c2-c2ccccc2)cc1		> 100	> 100		> 100	53.1	> 100 µM		> 100	> 100	> 100									
NC(N)=NCCCC(Nc1c2ccccc2nc2ccccc12)C(=O)O (configuration not stated)			> 100			> 100	> 100 µM	> 100	> 100		> 100									> 100
O=C1NC(c2cccc3ccccc23)Nc2ccc(Cl)cc21 (configuration not stated)						0.0512	0.022 µM and 0.0266 µM				12.1									0.000654
O=C(CC(O)(C(F)(F)F)C(F)(F)F)c1cccs1			> 10		> 10	> 10	> 10 µM	> 10	> 10	> 10	> 10									> 10
